Test results from the supplement of paper PMC10307832.

Assays:
Experiment in all cases: relative viability (nuclei count vs DMSO), 5 days (fraction); higher = more cells survive
[1] = compound: NCC(=O)Nc1ccc(-n2nc(C(F)(F)F)cc2-c2ccc3c(ccc4ccccc43)c2)cc1 + CC(=O)Nc1cccc(-n2c(=O)n(C3CC3)c(=O)c3c(Nc4ccc(I)cc4F)n(C)c(=O)c(C)c32)c1 [Trametinib] (partner 0.02 µM)
Summary of the method: (§1)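 Nuclei were stained with Hoechst during a one-step fixation (final 0.05% Triton X-100, 1% formaldehyde, 1 ug/ml Hoechst) carried out 5 days after dosing, then counted on 4× images. The cells, lung cancer lines in 1536-well plates, had been dosed by pin tool the day after seeding with one drug alone or a fixed anchor-drug dose plus five library-drug doses (not always all listed) in √10 steps. Relative viability is the nuclei count in treated wells divided by that in vehicle wells, and each value is the median of duplicate plates.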

[2] = compound: C1CSC2=C(C(=O)N1)SC3=C2C=C(C=C3)O [kb NB 142-70] + Cc1cc(Nc2cc(N3CCN(C)CC3)nc(Sc3ccc(NC(=O)C4CC4)cc3)n2)n[nH]1 [Tozasertib] (partner 0.1 µM)
Summary of the method: as §1

[3] = compound: C1CSC2=C(C(=O)N1)SC3=C2C=C(C=C3)O [kb NB 142-70] + Nc1nc2[nH]cc(CCc3ccc(C(=O)N[C@@H](CCC(=O)O)C(=O)O)cc3)c2c(=O)[nH]1 [Pemetrexed] (partner 0.2 µM)
Summary of the method: as §1

[4] = compound: NCC(=O)Nc1ccc(-n2nc(C(F)(F)F)cc2-c2ccc3c(ccc4ccccc43)c2)cc1 + NC(=O)Nc1cc(-c2cccc(F)c2)sc1C(=O)N[C@H]1CCCNC1 [AZD7762] (partner 0.2 µM)
Summary of the method: as §1

[5] = compound: C1CSC2=C(C(=O)N1)SC3=C2C=C(C=C3)O [kb NB 142-70] + Nc1ncn([C@H]2C[C@H](O)[C@@H](CO)O2)c(=O)n1 [Decitabine] (partner 2 µM)
Summary of the method: as §1

Cell Line | relative viability ([1]; first compound 0.02 µM) | relative viability ([1]; first compound 0.06325 µM) | relative viability ([1]; first compound 0.2 µM) | relative viability ([1]; first compound 0.6325 µM) | relative viability ([1]; first compound 2 µM) | relative viability ([2]; first compound 0.1 µM) | relative viability ([2]; first compound 1 µM) | relative viability ([2]; first compound 3.162 µM) | relative viability ([3]; first compound 0.1 µM) | relative viability ([3]; first compound 1 µM) | relative viability ([3]; first compound 3.162 µM) | relative viability ([4]; first compound 0.02 µM) | relative viability ([4]; first compound 0.06325 µM) | relative viability ([4]; first compound 0.2 µM) | relative viability ([4]; first compound 0.6325 µM) | relative viability ([4]; first compound 2 µM) | relative viability ([5]; first compound 0.1 µM) | relative viability ([5]; first compound 1 µM) | relative viability ([5]; first compound 3.162 µM)
LU99A | 0.548 | 0.678 | 0.569 | 0.56 | 0.48 | 0.285 | 0.237 | 0.195 | 0.175 | 0.196 | 0.187 | 0.333 | 0.387 | 0.389 | 0.341 | 0.355 | 1.09 | 0.9 | 0.708
LXF-289 | 0.716 | 0.705 | 0.67 | 0.672 | 0.68 | 0.173 | 0.192 | 0.181 | 0.86 | 0.989 | 0.715 | 1.14 | 1.13 | 1.01 | 1.12 | 1.06 | 0.392 | 0.369 | 0.365
NCI-H23 | 0.313 | 0.456 | 0.448 | 0.422 | 0.352 | 0.381 | 0.37 | 0.241 | 0.621 | 0.594 | 0.367 | 0.191 | 0.249 | 0.219 | 0.274 | 0.277 | 0.34 | 0.266 | 0.251
NCI-H322M | 0.521 | 0.482 | 0.537 | 0.5 | 0.547 | 0.464 | 0.519 | 0.45 | 0.614 | 0.631 | 0.45 | 0.569 | 0.711 | 0.578 | 0.636 | 0.681 | 0.675 | 0.72 | 0.616
NCI-H358 | 0.127 | 0.127 | 0.133 | 0.138 | 0.15 | 0.109 | 0.0809 | 0.077 | 0.175 | 0.141 | 0.114 | 0.535 | 0.593 | 0.607 | 0.609 | 0.526 | 0.226 | 0.148 | 0.0899
NCI-H441 | 0.394 | 0.436 | 0.507 | 0.523 | 0.555 | 0.663 | 0.581 | 0.302 | 0.269 | 0.248 | 0.196 | 1.12 | 1.1 | 1.32 | 1.06 | 1.12 | 0.259 | 0.213 | 0.162
NCI-H460 | 0.19 | 0.175 | 0.165 | 0.145 | 0.18 | 0.541 | 0.397 | 0.254 | 0.058 | 0.0629 | 0.0654 | 0.773 | 0.684 | 0.633 | 0.623 | 0.643 | 0.538 | 0.606 | 0.354
NCI-H522 | 0.596 | 0.684 | 0.781 | 0.92 | 0.813 | 0.521 | 0.565 | 0.61 | 1.03 | 0.871 | 0.745 | 0.609 | 1.09 | 0.815 | 0.888 | 0.828 | 0.61 | 0.698 | 0.581
NCI-H596 | 0.804 | 0.725 | 0.827 | 0.83 | 1.25 | 0.804 | 0.881 | 0.749 | 0.484 | 0.507 | 0.461 | 1.14 | 1.03 | 0.984 | 1.28 | 1.08 | 0.909 | 1.09 | 0.766
NCI-H647 | 0.535 | 0.512 | 0.591 | 0.434 | 0.49 | 0.274 | 0.332 | 0.426 | 0.186 | 0.192 | 0.178 | 0.384 | 0.39 | 0.524 | 0.431 | 0.527 | 0.383 | 0.477 | 0.36
NCI-H650 | 0.991 | 1.03 | 1.01 | 0.948 | 0.994 | 0.747 | 0.668 | 0.435 | 1.07 | 1.03 | 0.843 | 0.988 | 1.12 | 1.08 | 1.02 | 1.05 | 0.309 | 0.283 | 0.267
NCI-H838 | 0.515 | 0.539 | 0.521 | 0.43 | 0.411 | 0.29 | 0.249 | 0.271 | 0.257 | 0.248 | 0.245 | 1.01 | 0.922 | 0.986 | 0.913 | 0.957 | 0.431 | 0.454 | 0.427
NCI-H1355 | 0.414 | 0.481 | 0.47 | 0.428 | 0.433 | 0.577 | 0.542 | 0.428 | 0.943 | 1.06 | 1.04 | 0.717 | 0.776 | 0.797 | 0.776 | 0.806 | 0.39 | 0.355 | 0.342
NCI-H1395 | 1.09 | 0.998 | 1.1 | 1.03 | 1.09 | 0.724 | 0.784 | 0.729 | 0.915 | 0.872 | 0.833 | 0.373 | 0.421 | 0.37 | 0.407 | 0.38 | 0.635 | 0.726 | 0.609
NCI-H1437 | 0.519 | 0.579 | 0.497 | 0.467 | 0.683 | 0.407 | 0.421 | 0.446 | 0.297 | 0.359 | 0.349 | 0.974 | 1.21 | 1.13 | 1.1 | 1.11 | 0.578 | 0.55 | 0.536
NCI-H1648 | 0.414 | 0.533 | 0.573 | 0.563 | 0.506 | 0.396 | 0.524 | 0.398 | 0.731 | 0.763 | 0.932 | 0.893 | 0.598 | 0.74 | 0.663 | 0.588 | 0.452 | 0.435 | 0.493
